Assay [1] concerns the target T1, ENPP3 (Homo sapiens, UniProt O14638).
T1 sequence (O14638 1-875): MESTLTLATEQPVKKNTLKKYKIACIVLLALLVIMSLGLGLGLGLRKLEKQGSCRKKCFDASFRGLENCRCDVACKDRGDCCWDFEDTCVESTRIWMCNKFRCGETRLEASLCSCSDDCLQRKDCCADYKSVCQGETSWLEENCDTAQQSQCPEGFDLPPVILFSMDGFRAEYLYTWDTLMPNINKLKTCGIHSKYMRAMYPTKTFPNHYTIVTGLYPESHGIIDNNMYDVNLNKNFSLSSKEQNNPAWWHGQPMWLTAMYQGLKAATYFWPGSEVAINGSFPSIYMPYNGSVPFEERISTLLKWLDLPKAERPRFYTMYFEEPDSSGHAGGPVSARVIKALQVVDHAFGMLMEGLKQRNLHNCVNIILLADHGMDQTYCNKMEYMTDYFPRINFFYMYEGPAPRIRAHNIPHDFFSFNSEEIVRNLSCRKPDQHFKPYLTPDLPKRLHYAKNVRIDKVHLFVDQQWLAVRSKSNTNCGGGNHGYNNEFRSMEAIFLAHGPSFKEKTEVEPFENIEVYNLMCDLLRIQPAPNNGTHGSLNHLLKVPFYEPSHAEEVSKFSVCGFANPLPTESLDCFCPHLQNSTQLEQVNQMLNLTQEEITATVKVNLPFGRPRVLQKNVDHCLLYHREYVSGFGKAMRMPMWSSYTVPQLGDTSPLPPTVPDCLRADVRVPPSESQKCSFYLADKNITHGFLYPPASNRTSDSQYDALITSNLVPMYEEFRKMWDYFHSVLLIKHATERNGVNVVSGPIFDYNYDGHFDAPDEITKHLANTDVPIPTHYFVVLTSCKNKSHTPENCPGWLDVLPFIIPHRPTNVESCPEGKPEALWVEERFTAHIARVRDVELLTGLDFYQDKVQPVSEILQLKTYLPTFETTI
The experiment in a line: ENPP3 Km ATP assay. The note with it: ATP at Km. It counts as biochemical.

The target in assay [2] is T2, human ENPP1 (Homo sapiens, UniProt P22413).
T2 construct: made in house
T2 sequence (P22413 1-925): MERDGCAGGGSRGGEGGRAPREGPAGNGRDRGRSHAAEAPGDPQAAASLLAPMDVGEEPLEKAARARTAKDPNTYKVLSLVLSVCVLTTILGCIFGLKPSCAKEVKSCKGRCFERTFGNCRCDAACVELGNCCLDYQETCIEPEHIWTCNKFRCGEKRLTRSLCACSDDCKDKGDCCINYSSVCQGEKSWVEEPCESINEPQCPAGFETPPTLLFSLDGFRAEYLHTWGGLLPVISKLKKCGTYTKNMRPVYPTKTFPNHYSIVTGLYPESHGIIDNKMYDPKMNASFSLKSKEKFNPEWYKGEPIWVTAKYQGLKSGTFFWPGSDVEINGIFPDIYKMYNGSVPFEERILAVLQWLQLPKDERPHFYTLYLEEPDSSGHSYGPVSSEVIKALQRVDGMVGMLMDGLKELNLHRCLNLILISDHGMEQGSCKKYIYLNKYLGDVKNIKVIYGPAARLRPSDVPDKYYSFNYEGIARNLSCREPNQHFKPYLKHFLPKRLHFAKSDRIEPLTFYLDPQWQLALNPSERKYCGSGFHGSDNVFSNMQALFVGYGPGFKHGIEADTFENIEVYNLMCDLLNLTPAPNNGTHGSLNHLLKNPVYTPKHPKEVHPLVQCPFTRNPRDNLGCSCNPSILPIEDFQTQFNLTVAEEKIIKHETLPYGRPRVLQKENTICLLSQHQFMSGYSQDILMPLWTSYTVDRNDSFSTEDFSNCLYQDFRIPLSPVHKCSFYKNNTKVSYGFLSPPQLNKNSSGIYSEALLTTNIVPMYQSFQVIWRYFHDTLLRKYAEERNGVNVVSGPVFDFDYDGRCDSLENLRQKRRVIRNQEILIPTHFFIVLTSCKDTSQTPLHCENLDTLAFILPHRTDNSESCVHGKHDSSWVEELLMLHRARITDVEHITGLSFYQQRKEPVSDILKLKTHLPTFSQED
The assay is described as follows: ENPP1 assay with ATP substrate (Transcreener AMP2/GMP2 TR-FRET). The format is biochemical. The note with it: 1 hour at room temperature. The method, boiled down: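 5′-AMP from ATP hydrolysis (300 nM ATP stock added; enzyme added as 8.5 μM stock) detected by competitive TR-FRET. Buffer: 50 mM Tris pH 7.5, 1 mM TCEP, 2 mM MgCl2, 0.005% Tween 20, 1% DMSO. Reaction 1 h at room temperature, EDTA stop. IC50 from 2-parameter variable-slope fit.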
In general terms: TR-FRET usually uses a lanthanide donor and a delayed reading to cut background.

Some results are limits rather than exact numbers.

For the compound `CCSc1nc(NCc2ccc(S(N)(=O)=O)cc2)c2cnn(CC)c2n1` [Example 2.109, 4-((1-Ethyl-6-(ethylsulfanyl)-1H-pyrazolo[3,4-d]pyrimidin-4-yl)aminomethyl)-benzenesulfonamide], the IC50 (usually the point on the concentration scale where inhibition reaches its midpoint) was 0.1 to 1 µM in assay [1] and less than 0.1 µM in assay [2].
In the same order, the values of `CCSc1nc(NCc2ccc(S(N)(=O)=O)cc2)c2c(Br)nn(C)c2n1` [Example 2.110, 4-((3-Bromo-6-(ethylsulfanyl)-1-methyl-1H-pyrazolo[3,4-d]pyrimidin-4-yl)aminomethyl)-benzenesulfonamide] are less than 0.1 µM and less than 0.1 µM.
`CCCSc1nc(NCc2ccc(S(N)(=O)=O)cc2)c2cnn(C)c2n1` [Example 2.111, 4-((1-Methyl-6-(propylsulfanyl)-1H-pyrazolo[3,4-d]pyrimidin-4-yl)aminomethyl)-benzenesulfonamide]: the IC50 in assay [1] is 0.1 to 1 µM; in assay [2], less than 0.1 µM.
`CCn1ncc2c(NCc3ccc(S(N)(=O)=O)cc3)ccnc21` [Example 2.122, 4-((1-Ethyl-1H-pyrazolo[3,4-b]pyridin-4-yl)aminomethyl)benzenesulfonamide]: the IC50 in assay [1] was 1 to 20 µM; in assay [2] it was less than 0.1 µM.
In the same order, the values of `Cn1nc(-c2ccccn2)c2c(NCc3ccc(S(N)(=O)=O)cc3)nc(Cl)nc21` [Example 2.124, 4-((6-Chloro-1-methyl-3-(2-pyridyl)-1H-pyrazolo[3,4-d]pyrimidin-4-yl)aminomethyl)benzenesulfonamide] are 0.1 to 1 µM and 0.1 to 1 µM.
In the same order, the values of `Cc1nc(NCc2ccc(S(N)(=O)=O)cc2)c2c(C3=CCCC3)nn(C)c2n1` [Example 2.127, 4-((3-(1-Cyclopenten-1-yl)-1,6-dimethyl-1H-pyrazolo[3,4-d]pyrimidin-4-yl)aminomethyl)benzenesulfonamide] are 0.1 to 1 µM and 1 to 20 µM.
In the same order, the values of `Cn1nc(Br)c2c(NCc3ccc(S(N)(=O)=O)cc3)nc(N3CCCCC3)nc21` [Example 2.131, 4-((3-Bromo-1-methyl-6-piperidino-1H-pyrazolo[3,4-d]pyrimidin-4-yl)aminomethyl)benzenesulfonamide] are less than 0.1 µM and 1 to 20 µM.
Turning to `Cn1nc(-c2ccccc2)c2c(NCc3ccc(S(N)(=O)=O)cc3)nc(N3CCCCC3)nc21` [Example 2.132, 4-((1-Methyl-3-phenyl-6-piperidino-1H-pyrazolo[3,4-d]pyrimidin-4-yl)aminomethyl)benzenesulfonamide], the values for the IC50 in assay [1] and in assay [2] were 0.1 to 1 µM and less than 0.1 µM, respectively.
As to `Cn1ncc2c(NCc3ccc(S(N)(=O)=O)cc3)nc(C(F)(F)F)nc21` [Example 2.133, 4-((1-Methyl-6-trifluoromethyl-1H-pyrazolo[3,4-d]pyrimidin-4-yl)aminomethyl)-benzenesulfonamide], the IC50 in assay [1] and in assay [2] was 1 to 20 µM in each case.
Take `Cn1ncc2c(NCc3ccc(S(N)(=O)=O)cc3)cc(C3CC3)nc21` [Example 2.134, 4-((6-Cyclopropyl-1-methyl-1H-pyrazolo[3,4-b]pyridin-4-yl)aminomethyl)-benzenesulfonamide]: the IC50 in assay [1] and in assay [2] was 1 to 20 µM in each case.
As for `Cc1nc(NCc2ccc(S(N)(=O)=O)cc2)c2c(C3CCCC3)nn(C)c2n1` [Example 2.135, 4-((3-Cyclopentyl-1,6-dimethyl-1H-pyrazolo[3,4-d]pyrimidin-4-yl)aminomethyl)benzenesulfonamide], the half-inhibitory concentration (IC50) in assay [1] and in assay [2] was 1 to 20 µM throughout.
For the compound `CN(Cc1ccc(S(N)(=O)=O)cc1)c1ncnc2c1cnn2C` [Example 2.136, 4-(N-methyl-N-(1-methyl-1H-pyrazolo[3,4-d]pyrimidin-4-yl)aminomethyl)-benzenesulfonamide], the IC50 is 0.1 to 1 µM in assay [1] and 1 to 20 µM in assay [2].
Regarding `Cn1ncc2c(OCc3ccc(S(N)(=O)=O)cc3)ncnc21` [Example 2.137, 4-((1-Methyl-1H-pyrazolo[3,4-d]pyrimidin-4-yl)oxymethyl)benzenesulfonamide], the IC50 in assay [1] and in assay [2] was 1 to 20 µM throughout.
